Test: Solubility tests of monomer 1 in the monomer solution with auxiliary surfactants (additives)
Format: physicochemical
Description: In order to solubilize monomer 1 the monomer was first dissolved in ethanol and then added to the monomer solution. This approach is used for AIBN, which has a low solubility in the monomer solution, too. […] Therefore, the use of auxiliary surfactants (additives) was tested.
These tests were done in first instance with 0.1 mol % of 1-4.

For C=C(C)C(=O)NCCC[N+](C)(C)CCCCCCCCCCCC [Monomer 1], the “Result (solubility of monomer 1)” value (Additive 1 Aromox C/12 2-20 eq, additive 2 Disponil A 1080 0-5 eq, same recipe) was “Not soluble***”, the “Result (solubility of monomer 1)” value (Additive 1 Aromox MCD 2-20 eq, additive 2 Disponil A 1080 0-5 eq, same recipe) was “Not soluble***” and the “Result (solubility of monomer 1)” value (Additive 1 C14TAB 2-20 eq, additive 2 Disponil A 1080 0-5 eq, same recipe) was “Not soluble***”. For the same compound, the “Result (solubility of monomer 1)” value (Additive 1 Dehyquart E-CA 2-20 eq, additive 2 Disponil A 1080 0-5 eq, same recipe) was “Not soluble***”, the “Result (solubility of monomer 1)” value (Additive 1 Deriphat 160 C 2-20 eq, additive 2 Disponil A 1080 0-5 eq, same recipe) was “Not soluble***” and the “Result (solubility of monomer 1)” value (Additive 1 Disponil A 1080 2-20 eq, no additive 2, same recipe) was “Partly dissolved”. For the same compound, the “Result (solubility of monomer 1)” value (Additive 1 Glucopon 225DK 2-20 eq, additive 2 Disponil A 1080 0-5 eq, same recipe) was “Not soluble***”, the “Result (solubility of monomer 1)” value (Additive 1 Lutensol AO 11 2-20 eq, additive 2 Disponil A 1080 0-5 eq, same recipe) was “Not soluble***” and the “Result (solubility of monomer 1)” value (Additive 1 Lutensol AT 18 2-20 eq, additive 2 Disponil A 1080 0-5 eq, same recipe) was “Not soluble***”. The “Result (solubility of monomer 1)” value (Additive 1 Lutensol TO 129 2-20 eq, additive 2 Disponil A 1080 0-5 eq, same recipe) was “Not soluble***”, the “Result (solubility of monomer 1)” value (Additive 1 Lutensol XP 100 2-20 eq, additive 2 Disponil A 1080 0-5 eq, same recipe) was “Not soluble***” and the “Result (solubility of monomer 1)” value (Additive 1 SDS 2-20 eq, additive 2 Disponil A 1080 0-5 eq, same recipe) was “Not soluble***”. The “Result (solubility of monomer 1)” value (Additive 1 Texapon NSO 2-20 eq, additive 2 Disponil A 1080 0-5 eq, same recipe) was “Not soluble***” and the “Result (solubility of monomer 1)” value (no additive, recipe 27 mol % sodium acrylate, 72.9 mol % acrylamide, 0.1 mol % 1) was “Not soluble***”.
